This note sets out measurements from ChEMBL document CHEMBL2021914, “Inhibition of platelet adhesion by peptidomimetics mimicking the interactive β-hairpin of glycoprotein Ibα” (Bioorg Med Chem Lett, 2012).

Experiment [1] has as its target von Willebrand factor (Homo sapiens) (UniProt P04275). The experiment can be described thus: Inhibition of GPIbalpha-vWF binding assessed as inhibition of ristocetin-induced platelet agglutination at 100 uM after 2 mins by static agglutination assay.
For experiment [2] the target is unchanged. The experiment can be described thus: Inhibition of GPIbalpha-human vWF binding assessed as platelet rolling velocity at 100 uM preincubated for 5 mins by parallel plate flow assay with real time imaging microscopy (reference value: 7.1 um/sec).
Experiment [3] shares this target. The experiment can be described thus: Inhibition of GPIbalpha-vWF binding assessed as ristocetin-induced platelet agglutination at 100 uM after 2 mins by static agglutination assay using washed platelets from male (reference value: 58%). More on the design: scale not given: the % may be the effect or the level left.
Experiment [4] shares this target. Briefly: Inhibition of GPIbalpha-vWF binding assessed as ristocetin-induced platelet agglutination at 100 uM after 2 mins by static agglutination assay using washed platelets from female (reference value: 61.7%). On the set-up: scale not given: the % may be the effect or the level left.
Experiment [5] has the same target. Briefly: Inhibition of GPIbalpha-vWF binding assessed as constant shear stress at 120 dynes/cm'2-induced platelet agglutination at 10 uM preincubated for 5 mins by cone and plate rheometer analysis relative to control using male platelet rich plasma (reference value: 100%). On the set-up: scale not given: the % may be the effect or the level left.
Experiment [6] shares this target. Briefly: Inhibition of GPIbalpha-vWF binding assessed as constant shear stress at 120 dynes/cm'2-induced platelet agglutination at 10 uM preincubated for 5 mins by cone and plate rheometer analysis relative to control using female platelet rich plasma (reference value: 100%). On the set-up: scale not given: the % may be the effect or the level left.
The target is the same in experiment [7]. The experiment can be described thus: Inhibition of GPIbalpha-human vWF binding assessed as decrease in arterial shear-induced platelet adhesion to vWF measuring number of platelets adhered during flow at 100 uM preincubated for 5 mins by parallel plate flow assay with real time imaging microscopy.
The target is the same in experiment [8]. The experiment can be described thus: Inhibition of GPIbalpha-human vWF binding assessed as decrease in arterial shear-induced platelet adhesion to vWF measuring number of platelets adhered after flow at 100 uM preincubated for 5 mins by parallel plate flow assay with real time imaging microscopy.
For experiment [9] the target is unchanged. The experiment can be described thus: Inhibition of GPIbalpha-vWF binding assessed as ristocetin-induced platelet agglutination at 1 uM after 2 mins by static agglutination assay using washed platelets (reference value: 66.5%). On the set-up: scale not given: the % may be the effect or the level left.
Experiment [10] has the same target. Briefly: Inhibition of GPIbalpha-vWF binding assessed as ristocetin-induced platelet agglutination at 10 uM after 2 mins by static agglutination assay using washed platelets (reference value: 66.5%). More on the design: scale not given: the % may be the effect or the level left.
Experiment [11] has the same target. The experiment can be described thus: Inhibition of GPIbalpha-vWF binding assessed as ristocetin-induced platelet agglutination at 100 uM after 2 mins by static agglutination assay using washed platelets (reference value: 66.5%). More on the design: scale not given: the % may be the effect or the level left.
For experiment [12] the target is unchanged. Briefly: Inhibition of GPIbalpha-vWF binding assessed as ristocetin-induced platelet agglutination at 1 uM after 2 mins by static agglutination assay using platelet rich plasma (reference value: 76.3%). On the set-up: scale not given: the % may be the effect or the level left.
Experiment [13] shares this target. Briefly: Inhibition of GPIbalpha-vWF binding assessed as ristocetin-induced platelet agglutination at 10 uM after 2 mins by static agglutination assay using platelet rich plasma (reference value: 76.3%). On the set-up: scale not given: the % may be the effect or the level left.
The target is the same in experiment [14]. The experiment can be described thus: Inhibition of GPIbalpha-vWF binding assessed as ristocetin-induced platelet agglutination at 100 uM after 2 mins by static agglutination assay using platelet rich plasma (reference value: 76.3%). More on the design: scale not given: the % may be the effect or the level left.
The target is the same in experiment [15]. The experiment can be described thus: Inhibition of GPIbalpha-vWF binding assessed as inhibition of ristocetin-induced platelet agglutination at 100 uM after 2 mins by static agglutination assay using washed platelets from male.
Experiment [16] shares this target. The experiment can be described thus: Inhibition of GPIbalpha-vWF binding assessed as inhibition of ristocetin-induced platelet agglutination at 100 uM after 2 mins by static agglutination assay using washed platelets from female.

Activity calls are given as the source filed them. The rule behind the calls is not given here. Where a SMILES comes first, the peptide text is derived from it. Bridges are numbered along the chain shown (N, C = ends).

Chain of von Willebrand factor (Homo sapiens) (P04275 whole entry): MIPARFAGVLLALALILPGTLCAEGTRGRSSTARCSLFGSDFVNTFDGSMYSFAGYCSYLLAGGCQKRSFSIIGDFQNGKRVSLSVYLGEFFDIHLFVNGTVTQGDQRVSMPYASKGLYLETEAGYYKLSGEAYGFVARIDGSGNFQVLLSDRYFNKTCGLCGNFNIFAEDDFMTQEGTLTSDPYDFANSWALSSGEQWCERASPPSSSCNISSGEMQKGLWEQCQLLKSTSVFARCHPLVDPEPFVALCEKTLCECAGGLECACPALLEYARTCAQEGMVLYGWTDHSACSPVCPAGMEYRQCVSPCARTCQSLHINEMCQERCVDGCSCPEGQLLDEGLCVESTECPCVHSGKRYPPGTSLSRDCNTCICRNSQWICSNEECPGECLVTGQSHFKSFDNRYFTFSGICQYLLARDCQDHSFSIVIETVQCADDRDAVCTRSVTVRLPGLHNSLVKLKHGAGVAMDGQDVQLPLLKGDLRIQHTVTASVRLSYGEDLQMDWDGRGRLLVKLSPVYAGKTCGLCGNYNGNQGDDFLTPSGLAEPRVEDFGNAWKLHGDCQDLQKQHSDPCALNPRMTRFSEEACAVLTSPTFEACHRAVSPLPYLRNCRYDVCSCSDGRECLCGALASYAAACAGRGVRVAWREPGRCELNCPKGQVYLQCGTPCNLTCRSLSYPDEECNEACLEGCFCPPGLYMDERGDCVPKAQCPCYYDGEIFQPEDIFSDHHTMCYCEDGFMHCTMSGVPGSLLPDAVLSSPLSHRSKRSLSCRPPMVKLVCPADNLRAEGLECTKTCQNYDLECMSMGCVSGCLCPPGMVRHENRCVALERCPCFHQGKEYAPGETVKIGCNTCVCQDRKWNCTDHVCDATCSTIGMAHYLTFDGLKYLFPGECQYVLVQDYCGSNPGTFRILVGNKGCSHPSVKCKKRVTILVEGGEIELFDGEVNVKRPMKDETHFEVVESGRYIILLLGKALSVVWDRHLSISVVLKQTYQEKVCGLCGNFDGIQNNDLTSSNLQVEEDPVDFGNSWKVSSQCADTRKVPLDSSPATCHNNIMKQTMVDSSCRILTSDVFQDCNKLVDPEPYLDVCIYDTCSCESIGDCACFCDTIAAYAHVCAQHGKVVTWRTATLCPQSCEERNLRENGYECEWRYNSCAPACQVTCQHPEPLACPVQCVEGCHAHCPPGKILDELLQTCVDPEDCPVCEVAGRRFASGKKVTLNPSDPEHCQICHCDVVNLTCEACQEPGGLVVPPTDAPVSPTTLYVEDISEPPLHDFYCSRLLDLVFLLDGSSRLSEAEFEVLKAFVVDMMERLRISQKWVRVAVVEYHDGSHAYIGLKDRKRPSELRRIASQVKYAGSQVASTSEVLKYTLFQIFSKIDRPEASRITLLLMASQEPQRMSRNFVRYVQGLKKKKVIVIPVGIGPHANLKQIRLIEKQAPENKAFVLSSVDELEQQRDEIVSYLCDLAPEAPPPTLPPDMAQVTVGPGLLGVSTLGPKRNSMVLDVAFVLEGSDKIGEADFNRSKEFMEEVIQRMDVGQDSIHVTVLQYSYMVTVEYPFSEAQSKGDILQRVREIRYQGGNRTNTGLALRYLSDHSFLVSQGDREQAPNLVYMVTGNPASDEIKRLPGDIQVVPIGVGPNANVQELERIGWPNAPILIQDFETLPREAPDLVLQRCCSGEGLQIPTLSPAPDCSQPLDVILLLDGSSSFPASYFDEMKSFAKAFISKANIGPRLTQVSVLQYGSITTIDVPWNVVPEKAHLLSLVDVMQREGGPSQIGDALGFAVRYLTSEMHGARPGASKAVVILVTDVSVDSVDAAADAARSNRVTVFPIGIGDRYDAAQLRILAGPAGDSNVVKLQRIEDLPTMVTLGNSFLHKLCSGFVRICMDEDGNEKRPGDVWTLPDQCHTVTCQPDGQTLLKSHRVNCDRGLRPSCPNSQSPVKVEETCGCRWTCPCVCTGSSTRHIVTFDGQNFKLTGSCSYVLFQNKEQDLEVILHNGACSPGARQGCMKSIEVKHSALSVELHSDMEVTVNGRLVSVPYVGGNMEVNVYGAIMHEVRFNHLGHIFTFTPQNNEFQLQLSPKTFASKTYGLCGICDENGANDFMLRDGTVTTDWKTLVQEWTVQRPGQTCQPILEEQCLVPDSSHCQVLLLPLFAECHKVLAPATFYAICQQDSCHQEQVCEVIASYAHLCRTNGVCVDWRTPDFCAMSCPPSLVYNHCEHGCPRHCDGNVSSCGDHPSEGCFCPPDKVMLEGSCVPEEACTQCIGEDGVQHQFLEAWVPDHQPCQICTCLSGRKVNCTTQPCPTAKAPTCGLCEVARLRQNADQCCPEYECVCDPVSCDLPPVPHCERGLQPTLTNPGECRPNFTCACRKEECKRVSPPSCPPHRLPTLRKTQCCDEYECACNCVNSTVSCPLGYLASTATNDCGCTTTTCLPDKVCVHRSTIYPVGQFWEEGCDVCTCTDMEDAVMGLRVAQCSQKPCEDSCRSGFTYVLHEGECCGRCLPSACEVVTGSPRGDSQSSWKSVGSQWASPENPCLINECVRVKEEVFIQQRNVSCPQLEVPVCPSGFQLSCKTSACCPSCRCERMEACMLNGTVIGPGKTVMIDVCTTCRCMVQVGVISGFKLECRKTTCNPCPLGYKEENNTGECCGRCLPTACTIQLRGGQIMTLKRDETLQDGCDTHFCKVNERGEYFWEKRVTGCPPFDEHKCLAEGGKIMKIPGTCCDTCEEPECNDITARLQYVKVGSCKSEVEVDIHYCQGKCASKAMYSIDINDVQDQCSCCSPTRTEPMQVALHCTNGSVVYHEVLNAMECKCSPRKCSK

With `CC(=O)N[C@@H](CO)C(=O)N[C@@H](Cc1cnc[nH]1)C(=O)N[C@@H](CC(C)C)C(=O)N[C@@H](CCC(=O)O)C(=O)N[C@H](C(=O)N[C@@H](CC(N)=O)C(=O)N1CCC[C@H]1C(=O)N1CCC[C@@H]1C(=O)N[C@@H](CCC(=O)O)C(=O)N[C@H](C(=O)N[C@@H](CO)C(=O)N[C@@H](CCCCN)C(=O)N[C@H](C(=O)N[C@@H](C)C(=O)O)C(C)C)C(C)C)C(C)C`, the inhibition in experiment [1] was found to be 42.1%.
On to `CC(C)C[C@@H]1NC(=O)[C@H](Cc2cnc[nH]2)NC(=O)[C@H](CO)NC(=O)[C@H](C)NC(=O)[C@H](C(C)C)NC(=O)[C@H](CCCCN)NC(=O)[C@H](CO)NC(=O)[C@H](C(C)C)NC(=O)[C@H](CCC(=O)O)NC(=O)[C@H]2CCCN2C(=O)[C@@H]2CCCN2C(=O)[C@H](CC(N)=O)NC(=O)[C@H](C(C)C)NC(=O)[C@H](CCC(=O)O)NC1=O`, for which the inhibition in [1] came to 10.4%.
Turning to `CC(C)[C@H](NC(=O)CNC(=O)[C@H](CCC(N)=O)NC(=O)[C@H](CCCCN)NC(=O)[C@H](Cc1c[nH]c2ccccc12)NC(=O)[C@H]1CCCN1C(=O)[C@@H]1CCCN1C(=O)[C@@H](NC(=O)[C@H](C)NC(=O)[C@H](CCCCN)NC(=O)[C@@H](NC(=O)[C@@H](N)CC(=O)O)C(C)C)C(C)C)C(=O)O`, the Activity turned out to be 5.6 um/s in experiment [2]; 58.8% in [3]; 59.7% in experiment [4]; 111% in [5]; 99.7% in [6].
As to H-PGPVYVWKQGVDVKAVTSN-OH, the inhibition entry in experiment [7] and in [8] was “inactive” throughout.
For `CC(C)[C@H](NC(=O)CNC(=O)[C@@H]1CSSC[C@H](NC(=O)[C@@H](NC(=O)[C@@H](N)CC(=O)O)C(C)C)C(=O)N[C@@H](C)C(=O)N[C@@H](C(C)C)C(=O)N2CCC[C@H]2C(=O)N2CCC[C@@H]2C(=O)N[C@@H](Cc2c[nH]c3ccccc23)C(=O)N[C@@H](CCCCN)C(=O)N1)C(N)=O`, the inhibition in [1] was found to be 28.5%. Besides, the Activity in experiment [2] worked out at 7 um/s; in [3], 36%; in experiment [4] it was 57.3%.
Regarding `CC(C)[C@@H]1NC(=O)CNC(=O)[C@@H]2CSSC[C@H](NC(=O)[C@H](C(C)C)NC(=O)[C@H](CC(=O)O)NC1=O)C(=O)N[C@@H](C)C(=O)N[C@@H](C(C)C)C(=O)N[C@@H]([C@@H](C)O)C(=O)N1CCC[C@H]1C(=O)N1CCC[C@@H]1C(=O)N[C@@H](C(C)C)C(=O)N[C@@H](Cc1c[nH]c3ccccc13)C(=O)N[C@@H](CCCCN)C(=O)N2`, the inhibition in experiment [1] turned out to be 44.6%.
For `CC(C)[C@@H]1NC(=O)CNC(=O)[C@H](CCC(N)=O)NC(=O)[C@H](CCCCN)NC(=O)[C@H](Cc2c[nH]c3ccccc23)NC(=O)[C@H](C(C)C)NC(=O)[C@H](Cc2ccc(O)cc2)NC(=O)[C@H](C(C)C)NC(=O)[C@@H]2CCCN2C(=O)CNC(=O)[C@@H]2CCCN2C(=O)[C@H](CC(N)=O)NC(=O)[C@H](CO)NC(=O)[C@H]([C@@H](C)O)NC(=O)[C@H](C(C)C)NC(=O)[C@H](C)NC(=O)[C@H](CCCCN)NC(=O)[C@H](C(C)C)NC(=O)[C@H](CC(=O)O)NC1=O` (cyclo(AVTSNPGPVYVWKQGVDVK)), the inhibition in experiment [1] amounted to 40.5%. Further, the inhibition entry in experiment [7] and in experiment [8] was “Active” in each case.
Consider `CC(C)C[C@@H]1NC(=O)[C@H](Cc2cnc[nH]2)NC(=O)[C@H](CO)NC(=O)[C@H](C)NC(=O)[C@H](C(C)C)NC(=O)[C@H](CCCCN)NC(=O)[C@H](CO)NC(=O)[C@H](C(C)C)NC(=O)[C@H](CCC(=O)O)NC(=O)[C@@H](N)CSSC[C@@H](C(=O)N[C@@H](CC(=O)O)C(=O)N[C@@H](CCCCN)C(N)=O)NC(=O)[C@H](CC(N)=O)NC(=O)[C@H](C(C)C)NC(=O)[C@H](CCC(=O)O)NC1=O` (H-CEVSKVASHLEVNCDK-NH2; disulfide 1-14), for which the inhibition in experiment [1] turned out to be 7.1%.
With `CC(C)[C@@H]1NC(=O)CNC(=O)[C@H](CCC(N)=O)NC(=O)[C@H](CCCCN)NC(=O)[C@H](Cc2c[nH]c3ccccc23)NC(=O)[C@H](C(C)C)NC(=O)[C@H]2CCCN2C(=O)[C@@H]2CCCN2C(=O)[C@H]([C@@H](C)O)NC(=O)[C@H](C(C)C)NC(=O)[C@H](C)NC(=O)[C@H](CCCCN)NC(=O)[C@H](C(C)C)NC(=O)[C@H](CC(=O)O)NC1=O`, the inhibition in experiment [1] is 8.9%.
Regarding `CC(C)[C@@H]1NC(=O)CNC(=O)[C@@H]2CSSC[C@H](NC(=O)[C@H](C(C)C)NC(=O)[C@H](CC(=O)O)NC1=O)C(=O)N[C@@H](C)C(=O)N[C@@H](C(C)C)C(=O)N1CCC[C@H]1C(=O)N1CCC[C@@H]1C(=O)N[C@@H](Cc1c[nH]c3ccccc13)C(=O)N[C@@H](CCCCN)C(=O)N2`, the inhibition is 43.9% in experiment [1], 44.8% in [15] and 17.8% in [16]. Besides, the Activity was 57.5% in experiment [9]; 46% in [10]; 37.3% in experiment [11]; 61.7% in experiment [12]; 57.3% in experiment [13]; 46.7% in [14]. The Activity in experiment [2] was 8.1 um/s; in [3] it was 32%; in [4] it was 50.7%; in [5], 107%; in experiment [6], 122%.

Broadly, the inhibition is the change of the read-out against control, counted positive when it falls.
